# Test results from US20050208511A1, “DMBT1 as a clinical marker and uses thereof” (priority 2003, published 2005).
# Assays:
# uterus = experiment: uterine weight in 22-day-old female rats; type: in vivo, Sprague Dawley rats; conditions: oral
# Method: (§1) Ten groups of 22-day-old female Sprague Dawley rats (three animals per group) were used to evaluate the effects of estrone, tamoxifen, raloxifene, and ICI 182780 on DMBT1 expression in the uterus. The following groups of rats were treated for three days as follows:
# (§2) All treatments were delivered orally in 0.5% Methocel. After treatment the animals were euthanized and the uteri were collected, weighed, frozen in liquid nitrogen, and stored at −20° C. RNA was purified from the frozen uteri using 1.0 mL of TRIzol Reagent (Invitrogen) and a PowerGen 25 tissue homogenizer (Fisher Scientific), according to the manufacturer's instructions.
# In rats, uteri increase in size under the proliferative influence of estrogen, and this increase in size can be measured by weighing the tissues.
# Administration of the treatments and collection of tissue samples were carried out according to the procedure described in Example 2. RNA was purified, blotted and hybridized to radioactively labeled rat ebnerin cDNA as in described in Example 2.
# DMBT1 [1] = experiment: Northern analysis of DMBT1 expression in rat uterus; type: in vivo, Sprague Dawley rats; conditions: for DMBT1 expression on coadministration with estrone: 70 μg/kg/day estrone + 1 mg/kg/day compound, relative to estrone alone (FIG. 3A); for DMBT1 expression increase in uterine tissue: compound alone, oral, three days, estrone 70 μg/kg/day, others 1 mg/kg/day (FIG. 2)
# Method: as §1, §2
# Northern analysis was performed to determine gene expression, including DMBT1 expression, in the uterus of control and treated rats. For gel electrophoresis, samples containing 2 μg of total RNA in a volume of 2 μL of water were added to 6 microliters of formaldehyde loading dye (Ambion) and incubated at 65° C. for 20 minutes. One microliter of a 0.1 mg/ml ethidium bromide solution was then added to each sample. […] The RNA was transferred to a Hybond-N membrane (Amersham) for […] by capillary transfer blotting, using 10×SSC (0.15 M Sodium citrate, pH 7.0, 1.5 M NaCl), after which the membranes were stained with ethidium bromide, destained with water, and photographed for lane loading comparison. The membranes were then air-dried and kept at room temperature until hybridization.
# A glycerol stock of a bacterial clone carrying a plasmid (pINCY) containing the rat ebnerin (DMBT1) gene was obtained from Incyte Genomics (ID#: 0000101155000011). […] One colony was selected and used to inoculate 200 mL of Lennox L Broth (Sigma)+50 μg/mL ampicillin (Sigma). The liquid culture was grown overnight at 37° C. and the bacteria were collected by centrifugation. Purification of plasmid DNA was carried out using a QIAfilter plasmid maxi kit (QIAgen) according to the manufacturer's instructions.
# Purified pINCY/DMBT1 was treated with the restriction enzymes EcoRI and NotI (Promega) for the preparation and isolation of a 1,174 bp DNA fragment containing the ebnerin probe (DMBT1). The products of the restriction enzyme reaction were separated by electrophoresis on a 1× TAE, 1% SeaKem Gold Agarose Reliant gel, and the band corresponding to the 1.174 kb DNA ebnerin clone was excised. The ebnerin DNA probe was purified from the gel slice using a QIAquick Gel Extraction Kit (QIAgen) according to the manufacturer's instructions. Bound DNA was eluted from the QIAgen column with 50 μL of elution buffer. The ebnerin DNA probe in the eluate was quantified by comparison to a DNA standard by gel electrophoresis. The ebnerin DNA probe was then diluted to a final concentration of 25 ng/μL.
# Random-primed probe was made from 25 ng of the purified ebnerin DNA using a DECAprime II kit (Ambion) and Redivue α-^32P dATP (10 mCi/mL) (Amersham) according to the manufacturer's instructions, with the exception that the reaction was incubated for 30 minutes at 37° C. After adding EDTA to stop the reaction, the labeled probe was purified using a QIAquick Nucleotide Removal Kit (QIAgen) according to the manufacturer's instructions, with the final volume of eluted probe being 50 μL. Two microliters were counted in a scintillation counter to ensure optimal radionuclide incorporation (>2×10^6 cpm/μL).
# The blot membrane as described in section A was wet in 2×SSC buffer (Sigma) for 15 minutes, then pre-hybridized in 10 mL RapidHyb (Amersham) at 65° C. for 20 minutes. The probe was boiled for 10 minutes, and 25 μL was added to 10 mL of RapidHyb, pre-warmed to 65° C. The blot membrane was added to the diluted probe solution and incubated, with rotation, in a hybridization oven for approximately 10 hours.
# The membrane was removed from the probe-containing solution and rinsed twice with 2×SSPE +0.5% SDS+0.5% pyrophosphate at room temperature, and then washed once, with gentle agitation, for 30 minutes at room temperature in the same solution.
# DMBT1 [2] = experiment: quantitative RT-PCR of DMBT1 in uterus of ovariectomized rats; type: in vivo, Wistar rats; conditions: OVX rats, co-treatment with ethinyl estradiol (FIG. 3B)
# Method: Six weeks old ovariectomized Wistar rats (Charles River, Wilmington, Mass.) were dosed for either one day or six weeks with vehicle or test compounds. All treatments were delivered orally, once daily, in 0.5% methylcellulose or sesame oil. After treatment, the uteri were removed, total RNA was purified from the tissues using TRIzol reagent (Invitrogen, Carlsbad, Calif.) as directed by the manufacturer.
# Quantitative reverse transcription-polymerase chain reactions (RT-PCR) of DMBT1 from rat RNA samples were carried out using a One-Step RT-PCR Master Mix Kit (Applied Biosystems, Foster City, Calif.) and an ABI Prism 7000 Sequence Detection System (Applied Biosystems), as described by the manufacturer. Commercially available primers and FAM-labeled MGB probes for human and rat DMBT1 (catalog numbers Hs00244827_ml and Rn00575705_ml, respectively) were obtained from Applied Biosystems (Foster City, Calif.). Messenger RNA levels were normalized against 18S ribosomal RNA levels determined using primers and a VIC- and TAMRA-labeled probe from the same vendor.
# monkey endometrium = experiment: DNA microarray gene expression profile (regulated gene identifiers) in endometrium of ovariectomized monkeys; type: in vivo, cynomolgus monkeys (Macaca fascicularis); conditions: Ovx/E2 vs Ovx/Placebo
# Excerpt: (§3) Adult female cynomolgus monkeys (Macaca fascicularis) were obtained from Covance Research Products. Following one complete menstrual cycle and in the follicular phase of the subsequent menstrual cycle, the animals were ovariectomized by a mid-ventral laparotomy. Ovariectomized (OVX) animals were subject to estrogen treatment after the fourth week following ovariectomy.
# (§4) Following this period, the OVX monkeys were euthanized and tissue biopsies were taken from endometria of the monkeys treated with estrogen and the placebo. (Details of the endometrial features in OVX monkeys and OVX+estrogen-treated monkeys is described in Example 4.) The biopsies were placed in sterile containers, snap frozen immediately in liquid nitrogen, and stored at −80° C. until processed. Total RNA was prepared from each endometrial tissue biopsy, as described below.
# Total RNA was prepared from endometrial tissue biopsies (approximately 50 mg each) using RNAzol™ (Tel-Test, Friendswood, Tex.), as follows. Two milliliters of RNAzol™ were used per 100 mg of tissue. Tissues were homogenized for 2 to 3 minutes using a Tissue Tearor homogenizer (Model No. 985-370; BioSpec Products, Bartlesville, Okla.), then transferred to a glass mortar bowl. The tissues were ground with at least 10 strokes of the pestle until a clear suspension was obtained. […]
# endometrium = experiment: average endometrial thickness in treated monkeys; type: in vivo, cynomolgus monkeys (Macaca fascicularis); conditions: 19 days
# Excerpt: as §3
# Animals and treatment were the same as Example 1 with the following exceptions. To study the effect of PRMs on the endometrium and gene expression, groups of three ovariectomized (OVX) monkeys were given an estrogen implant (E2), plus daily oral doses of the following PRMs for 19 days: mifepristone at 10 mg/kg/d; 17N11-DE (17β-N-substituted-11β-dimethylaminophenyl-estra-4,9-dien-3-one) 1.0, 3.0, or 10 mg/kg/d; 17N11-PE (17β-N-substituted-11β-piperidinylphenyl-estra-4,9-dien-3-one) at 1.0, 3.0, or 10 mg/kg/d. A placebo (0.5% methylcellulose) was administered as a control. 17N11-DE and 17N11-PE are two PRMs that have been described in PCT Publication No. WO 99/62928. Tissue samples were taken from endometria and myometria for histological analysis.
# luminal epithelium = luminal epithelium thickening in rat uterus sections; type: in vivo, Wistar rats; conditions: OVX rats dosed six weeks, compared to sham and ovariectomized control; estrogen = ethinyl estradiol
# Method: Mature, six week-old ovariectomized or sham-operated Wistar rats (Charles River) were dosed with ethinyl estradiol, tamoxifen or raloxifene for six weeks. Uteri were removed, sectioned for immunohistochemical analysis for DMBT1 expression using a polyclonal goat antibody against the human protein.
# Tissues were trimmed and processed for paraffin embedding according to conventional methods. Five-micron sections were cut, mounted onto SuperFrost Plus+(Fisher Scientific, Pittsburgh, Pa.) microscopic slides and dried overnight. The protocols for routine single immunohistochemistry (IHC) have been described previously (D'Andrea et al., 2001, Biotechnic Histochem. 76:97-106). Briefly, tissue sections on microscopic slides were dewaxed and re-hydrated. Slides were microwaved for 5 min in Target buffer (Dako, Carpenturia, Calif.), cooled, placed in phosphate-buffered saline (PBS, pH 7.4) and treated with 3% (v/v) H2O2 for 10 min at room temperature. All incubations (30 min each) and washes were performed at room temperature. Normal rabbit blocking serum (Vector Labs, Burlingame, Calif.) was placed on all slides for 10 min. After a brief rinse in PBS, sections were treated with goat polyclonal DMBT1 primary antibody (1:25, Hypromatrix, Worcester, Mass.). Slides were then washed in PBS and treated with rabbit anti-goat biotinylated secondary antibodies (Vector Labs). After washing in PBS, the avidin-biotin-horseradish peroxidase complex reagent (HRP, Vector Labs) was added. All slides were washed and treated with 3,3′-diaminobenzidine (DAB, Biomeda, Foster City, Calif.) two times for 5 min each, rinsed in distilled water, and counterstained with hematoxylin.
# DMBT1 [3] = experiment: DNA microarray analysis of DMBT1 expression in endometrium of ovariectomized monkeys; type: in vivo, cynomolgus monkeys (Macaca fascicularis); conditions: OVX monkeys, estrogen implant 19 days vs Ovx/Placebo, endometrium, microarray
# Excerpt: as §3, §4
# Total RNA was prepared from endometrial tissue biopsies (approximately 50 mg each) using RNAzol™ (Tel-Test, Friendswood, Tex.), as follows. Two milliliters of RNAzol™ were used per 100 mg of tissue. Tissues were homogenized for 2 to 3 minutes using a Tissue Tearor homogenizer (Model No. 985-370; BioSpec Products, Bartlesville, Okla.), then transferred to a glass mortar bowl. The tissues were ground with at least 10 strokes of the pestle until a clear suspension was obtained. The homogenates were transferred to a polypropylene conical flask, to which 0.1 mL of chloroform per 1 mL of homogenate was added. The mixtures were then shaken vigorously for 1 minute. The suspensions were then transferred to a 2 mL microcentrifuge tube and centrifuged for 15. minutes at 12000 g and at 4° C. in a fixed angle rotor using a Biofuge 17R centrifuge (Baxter, Deerfield, Ill.). The aqueous phase was carefully transferred to a new microcentrifuge tube. An equal volume of isopropanol was added to the aqueous phase, mixed gently, and incubated at 4° C. for 15 minutes. RNA was pelleted by centrifuging the mixture for 15 minutes at 12000 g and at 4° C. as described above. The supernatant was removed and the pellet washed with 75% (v/v) ethanol (Pharmco Products, Brookfield, Conn.), followed by centrifugation at 7500 g for 8 minutes at 4° C. The supernatant was removed, and then the RNA pellet was air-dried briefly and resuspended in RNase-free water (Promega, Madison, Wis.). The samples were then treated with Amplification Grade RNase-free DNase I to remove any residual DNA (Invitrogen, Carlsbad, Calif.). Specifically, twenty micrograms of RNA were treated in a reaction volume of 0.1 mL, containing 1× DNase I reaction buffer and 10 units of DNase I. The reaction continued at room temperature for 15 minutes. […]
# [4] = estrogen-stimulated endometrium (C)
compound,measurement,setting,value
C[C@]12CC[C@@H]3c4ccc(O)cc4C[C@@H](CCCCCCCCC[S+]([O-])CCCC(F)(F)C(F)(F)F)[C@H]3[C@@H]1CC[C@@H]2O (some centres unmarked) [ICI 182780],uterine weight on co-treatment with estrone,"uterus; 70 μg/kg/day estrone + 1 mg/kg/day compound, three days (FIG. 1)",approximately between that of estrone (E) and ICI 182780 (1) treatments alone
same,uterine weight,"uterus; compound alone, three days, estrone 70 μg/kg/day, others 1 mg/kg/day, vs control (FIG. 1)",significant decrease in uterine weight
same,DMBT1 expression on coadministration with estrone,DMBT1 [1]; 1 mg/kg/day,moderately lowered
same,DMBT1 expression on coadministration with estrone,"DMBT1 [1]; listed as ICI 182,780, 1 mg/kg/day",inhibited
same,DMBT1 expression increase in uterine tissue,DMBT1 [1],undetectable levels
C[C@]12CC[C@@H]3c4ccc(O)cc4CC[C@H]3[C@@H]1CCC2=O [estrone],DMBT1 expression increase in uterine tissue,DMBT1 [1],~5 fold
CC(=O)O[C@]1(C(C)=O)CC[C@H]2[C@@H]3C[C@H](C)C4=CC(=O)CC[C@]4(C)[C@H]3CC[C@@]21C [medroxyprogesterone acetate],effect on ethinyl estradiol-induced increase in DMBT1 mRNA levels,DMBT1 [2],blocked the increase in mRNA levels in a dose-dependent manner
estrogen,PR gene regulation by estrogen,monkey endometrium,threefold up-regulation
same,insulin-like growth factor binding protein 3 gene regulation by estrogen,monkey endometrium,tenfold down-regulation
same,Endometrial Thickness (mm),endometrium; Ovx/E2/Vehicle,3.03 mm
same,endometrial thickness relative to chemically castrated endometrium (B),endometrium; [4],2.5 times
same,endometrial thickness relative to ovariectomized control (A),endometrium; [4],seven to eight times thicker
same,thickening of the luminal epithelium,luminal epithelium,expected thickening of the luminal epithelium
same,expression of DMBT1 up-regulated,DMBT1 [3],37 fold
